Experimental data published in patent US8889682B2, “Inhibitors of bruton'S tyrosine kinase” (Hoffmann-La Roche Inc., priority 2011, dated 2014).

The compounds below were run on B cell receptor-mediated activation of B cells in human blood (CD69 expression) (assay: Inhibition of B cell activation in whole blood measured by CD69 expression). Conditions: anti-IgM stimulation, 20 hours, CD69-positive cells that are also CD20-positive, read-out: HWB IC50.
Format: cell-based
Procedure: Inhibition of B Cell Activation in Whole Blood Measured by CD69 Expression
A procedure to test the ability of Btk inhibitors to suppress B cell receptor-mediated activation of B cells in human blood is as follows:
Human whole blood (HWB) is obtained from healthy volunteers, with the following restrictions: 24 hr drug-free, non-smokers. Blood is collected by venipuncture into Vacutainer tubes anticoagulated with sodium heparin. Test compounds are diluted to ten times the desired starting drug concentration in PBS […], followed by three-fold serial dilutions in 10% DMSO in PBS to produce a nine point dose-response curve. […] HWB (100 μl) is added to each well, and after mixing the plates are incubated at 37 C, 5% CO2, 100% humidity for 30 minutes.
Included are induced control, unstained and single stains for compensation adjustments and initial voltage settings. […] Supernatants are removed via suction and the remaining pellets are lysed again with another 1 ml of 1× Pharmingen Lyse Buffer, and plates are spun down as before. Supernatants are aspirated and remaining pellets are washed in FACs buffer (PBS+1% FBS). […] Samples are transferred to a 96 well plate suitable to be run on the HTS 96 well system on the BD LSR II flow cytometer.
Using appropriate excitation and emission wavelengths for the fluorophores used, data are acquired and percent positive cell values are obtained using Cell Quest Software. Results are initially analyzed by FACS analysis software (Flow Jo).
In the case of `CN1CCn2nc(Nc3cc(-c4ccnc(-n5ccc6cc(C(C)(C)C)cc(F)c6c5=O)c4CO)nn(C)c3=O)cc2C1` [Compound I-23, 6-tert-Butyl-8-fluoro-2-{3-hydroxymethyl-4-[1-methyl-5-(5-methyl-4,5,6,7-tetrahydro-pyrazolo[1,5-a]pyrazin-2-ylamino)-6-oxo-1,6-dihydro-pyridazin-3-yl]-pyridin-2-yl}-2H-isoquinolin-1-one], the IC50 is reported as 15 nM. `Cn1nc(-c2ccnc(-n3ccc4cc(C(C)(C)C)cc(F)c4c3=O)c2CO)cc(Nc2cc3n(n2)CCN(C2COC2)C3)c1=O` [Compound I-24, 6-tert-Butyl-8-fluoro-2-{3-hydroxymethyl-4-[1-methyl-5-(5-oxetan-3-yl-4,5,6,7-tetrahydro-pyrazolo[1,5-a]pyrazin-2-ylamino)-6-oxo-1,6-dihydro-pyridazin-3-yl]-pyridin-2-yl}-2H-isoquinolin-1-one] showed an IC50 of 6 nM. For `CCN1CCn2nc(Nc3cc(-c4ccnc(-n5ccc6cc(C(C)(C)C)cc(F)c6c5=O)c4CO)nn(C)c3=O)cc2C1` [Compound I-25, 6-tert-Butyl-2-{4-[5-(5-ethyl-4,5,6,7-tetrahydro-pyrazolo[1,5-a]pyrazin-2-ylamino)-1-methyl-6-oxo-1,6-dihydro-pyridazin-3-yl]-3-hydroxymethyl-pyridin-2-yl}-8-fluoro-2H-isoquinolin-1-one], the IC50 was 3 nM. `Cn1nc(-c2ccnc(-n3ccc4cc(C(C)(C)C)cc(F)c4c3=O)c2CO)cc(Nc2ccc(OC(C)(C)CN3CC(F)(F)C3)cn2)c1=O` [Compound I-27, 6-tert-Butyl-2-[4-(5-{5-[2-(3,3-difluoro-azetidin-1-yl)-1,1-dimethyl-ethoxy]-pyridin-2-ylamino}-1-methyl-6-oxo-1,6-dihydro-pyridazin-3-yl)-3-hydroxymethyl-pyridin-2-yl]-8-fluoro-2H-isoquinolin-1-one] showed an IC50 of 62 nM. Work on `Cn1cc(-c2nccc(-n3ncc4cc(C(C)(C)C)cc(F)c4c3=O)c2CO)cc(Nc2ccc(C(=O)N3CCOCC3)cn2)c1=O` [Compound I-28, 4-(6-tert-Butyl-8-fluoro-1-oxo-1H-phthalazin-2-yl)-3-hydroxymethyl-1′-methyl-5′-[5-(morpholine-4-carbonyl)-pyridin-2-ylamino]-1′H-[2,3′]bipyridinyl-6′-one] yielded an IC50 of 74 nM. `Cn1cc(-c2nccc(-n3ncc4cc(C(C)(C)C)cc(F)c4c3=O)c2CO)cc(Nc2ccc(S(C)(=O)=O)cn2)c1=O` [Compound I-29, 4-(6-tert-Butyl-8-fluoro-1-oxo-1H-phthalazin-2-yl)-3-hydroxymethyl-5′-(5-methanesulfonyl-pyridin-2-ylamino)-1′-methyl-1′H-[2,3′]bipyridinyl-6′-one] gave an IC50 of 162 nM. With `Cn1nc(-c2ccnc(-n3ncc4cc(C(C)(C)C)cc(F)c4c3=O)c2CO)cc(Nc2ccc(OC(C)(C)CN3CC(F)(F)C3)cn2)c1=O` [Compound I-30, 6-tert-Butyl-2-[4-(5-{5-[2-(3,3-difluoro-azetidin-1-yl)-1,1-dimethyl-ethoxy]-pyridin-2-ylamino}-1-methyl-6-oxo-1,6-dihydro-pyridazin-3-yl)-3-hydroxymethyl-pyridin-2-yl]-8-fluoro-2H-phthalazin-1-one] the IC50 was 55 nM. `CN1CCn2nc(Nc3cc(-c4ccnc(-n5ccc6cc(C(C)(C)C#N)cc(F)c6c5=O)c4CO)nn(C)c3=O)cc2C1` [Compound I-31, 2-(8-Fluoro-2-{3-hydroxymethyl-4-[1-methyl-5-(5-methyl-4,5,6,7-tetrahydro-pyrazolo[1,5-a]pyrazin-2-ylamino)-6-oxo-1,6-dihydro-pyridazin-3-yl]-pyridin-2-yl}-1-oxo-1,2-dihydro-isoquinolin-6-yl)-2-methyl-propionitrile] was tested, and the IC50 was 36 nM. `Cn1nc(-c2ccnc(-n3ccc4cc(C(C)(C)C#N)cc(F)c4c3=O)c2CO)cc(Nc2ccc(OC(C)(C)CN3CC(F)(F)C3)cn2)c1=O` [Compound I-32, 2-{2-[4-(5-{5-[2-(3,3-Difluoro-azetidin-1-yl)-1,1-dimethyl-ethoxy]-pyridin-2-ylamino}-1-methyl-6-oxo-1,6-dihydro-pyridazin-3-yl)-3-hydroxymethyl-pyridin-2-yl]-8-fluoro-1-oxo-1,2-dihydro-isoquinolin-6-yl}-2-methyl-propionitrile] was tested, and the IC50 was 106 nM. `Cn1nc(-c2ccnc(-n3ncc4cc(C(C)(C)C)ccc4c3=O)c2CO)cc(Nc2ccc(OC(C)(C)CN3CC(F)(F)C3)cn2)c1=O` [Compound I-33, 6-tert-Butyl-2-[4-(5-{5-[2-(3,3-difluoro-azetidin-1-yl)-1,1-dimethyl-ethoxy]-pyridin-2-ylamino}-1-methyl-6-oxo-1,6-dihydro-pyridazin-3-yl)-3-hydroxymethyl-pyridin-2-yl]-2H-phthalazin-1-one] showed an IC50 of 212 nM. `Cn1nc(-c2ccnc(-n3ncc4cc(C(C)(C)C)cc(F)c4c3=O)c2CO)cc(Nc2cc3n(n2)CC[N+](C)([O-])C3)c1=O` (centres unmarked) [Compound I-34, 6-tert-Butyl-8-fluoro-2-{3-hydroxymethyl-4-[1-methyl-5-(5-methyl-5-oxy-4,5,6,7-tetrahydro-pyrazolo[1,5-a]pyrazin-2-ylamino)-6-oxo-1,6-dihydro-pyridazin-3-yl]-pyridin-2-yl}-2H-phthalazin-1-one] was tested, and the IC50 was 3500 nM.
